Measured values: patent US6906205B2, “Spiro and dispiro 1,2,4-trioxolane antimalarials” (Medicines for Malaria Venture MMV, priority 2002, dated 2005)

Experiments:
Type in all cases: in vivo, Plasmodium berghei
P. berghei ANKA strain [1] = assay: treatment: 3x10 mg/kg p.o. divided dose vs 1x30 mg/kg po single dose in infected mice; conditions: for Activity (%) p.o. SSV: percent reduction of parasitemia day 4; for Cures: 1 × 30 mg/kg, survival to day 30 post-infection = cure, cured/treated mice
Method: Moro NMRI male mice (Fü Albino specific pathogen free) weighing 18±2 g were infected intravenously (i.v.) with 2×10^7 P. berghei ANKA strain-infected erythrocytes from donor mice on day 0 of the experiment. From donor mice with circa 30% parasitemia, heparinized blood was taken and diluted in physiological saline to 10^8 parasitized erythrocytes per ml. An aliquot (0.2 ml) of this suspension was injected i.v. into experimental and control groups of mice. […] Throughout the experiments, mice were kept in groups of three or five animals in Makrolon type II cages in an air-conditioned animal room at 22 to 23° C.
They were administered per os (p.o.) in a total volume of 0.01 ml per gram of mouse. The activity of the compound was determined by a variety of methods outlined in subsequent sections. Survival time was also recorded, and survival to day 30 post-infection was considered to be a cure.
The first experiment conducted consisted of administration of a divided 3×10 mg/kg p.o. dose administered on days 1, 2, and 3 post-infection vs. a single 1×30 mg/kg po dose administered on day 1 post-infection. On day 4 post-infection, blood smears of all animals were prepared and stained with Giemsa. […] Compounds were administered orally in the SSV vehicle.

P. berghei ANKA strain [2] = assay: treatment: 3x3 mg/kg and 3x1 mg/kg po divided doses in infected mice; conditions: for Activity (%) p.o. SSV: percent reduction of parasitemia day 4
Method: (§1) Moro NMRI male mice (Fü Albino specific pathogen free) weighing 18±2 g were infected intravenously (i.v.) with 2×10^7 P. berghei ANKA strain-infected erythrocytes from donor mice on day 0 of the experiment. From donor mice with circa 30% parasitemia, heparinized blood was taken and diluted in physiological saline to 10^8 parasitized erythrocytes per ml. An aliquot (0.2 ml) of this suspension was injected i.v. into experimental and control groups of mice. In untreated control mice, parasitemia rose regularly to 40 to 50% by day 3 post-infection and 70 to 80% by day 4 post-infection. The mice died between days 5 and 7 post-infection. Throughout the experiments, mice were kept in groups of three or five animals in Makrolon type II cages in an air-conditioned animal room at 22 to 23° C. A diet with p-aminobenzoic acid (PABA) of 45 mg (NAFAG FUTTER© food N^o 9009 PAB-45) per kg of body weight, and tap water is available ad libitum.
(§2) OZ compounds were prepared at an appropriate concentration, either as a solution or a suspension containing SSV (0.5% w/v CMC, 0.5% v/v benzyl alcohol, 0.4% v/v Tween 80, and 0.9% w/v sodium chloride in water). They were administered per os (p.o.) in a total volume of 0.01 ml per gram of mouse. The activity of the compound was determined by a variety of methods outlined in subsequent sections. Survival time was also recorded, and survival to day 30 post-infection was considered to be a cure.
The second experiment consists of administration of divided 3×3 mg/kg and 3×1 mg/kg po doses administered on days 1, 2, and 3 post-infection. On day 4 post-infection, blood smears of all animals were prepared and stained with Giemsa. Parasitemia was determined microscopically, and the difference between the mean value of the control group (taken as 100%) and those of the experimental groups was calculated and expressed as percent reduction. Compounds were administered orally in the SSV vehicle.

P. berghei ANKA strain [3] = assay: prophylactic activity, single 100 mg/kg po dose before infection; conditions: reduction of parasitemia day 3 post-infection
Method: as §1, §2
Prophylactic activities of the compounds were compared after administering po single dose of 100 mg/kg to different groups of five animals at various times before infection. All groups including an untreated control group, were then infected at the same time. Parasitemia was determined for each animal on day 3 post-infection, and percent of reduction of the level of parasitemia compared to levels for animals given no drug is determined.

[4] = 1 × 30 mg/kg single dose day 1 post-infection
[5] = 3 × 10 mg/kg days 1, 2, 3 post-infection
[6] = 3 × 1 mg/kg days 1, 2, 3 post-infection
[7] = 3 × 3 mg/kg days 1, 2, 3 post-infection
[8] = single 100 mg/kg po 24 h before infection
[9] = single 100 mg/kg po 48 h before infection
[10] = single 100 mg/kg po 72 h before infection

| Structure (SMILES) | Survival (days) p.o. SSV (P. berghei ANKA strain [1]; [4]) [days] | Activity (%) p.o. SSV (P. berghei ANKA strain [1]; [4]) [%] | Cures (P. berghei ANKA strain [1]) | Survival (days) p.o. SSV (P. berghei ANKA strain [1]; [5]) [days] | Activity (%) p.o. SSV (P. berghei ANKA strain [1]; [5]) [%] | Survival (days) p.o. SSV (P. berghei ANKA strain [2]; [6]) [days] | Activity (%) p.o. SSV (P. berghei ANKA strain [2]; [6]) [%] | Survival (days) p.o. SSV (P. berghei ANKA strain [2]; [7]) [days] | Activity (%) p.o. SSV (P. berghei ANKA strain [2]; [7]) [%] | Prophylactic Activity (%) (P. berghei ANKA strain [3]; [8]) | Prophylactic Activity (%) (P. berghei ANKA strain [3]; [9]) | Prophylactic Activity (%) (P. berghei ANKA strain [3]; [10]) | Prophylactic Activity (%) (P. berghei ANKA strain [3]; single 100 mg/kg po at 0 h) |
| --- | --- | --- | --- | --- | --- | --- | --- | --- | --- | --- | --- | --- | --- |
| CS(=O)(=O)O.NCC1CCC2(CC1)OOC1(O2)C2CC3CC(C2)CC1C3 (stereo not shown) [compound 209] | >30 | 100 | 0/5 | >30 | 100 | 9.4 | 99.51 | 16.4 | 100 | 100 | 99.9 | 99.92 | 100 |
| CS(=O)(=O)O.NCC(=O)NCC1CCC2(CC1)OOC1(O2)C2CC3CC(C2)CC1C3 (stereo not shown) [compound 271] | 14 | 99.97 | 0/5 | 27.8 | 100 | 8.8 | 87 | 16.2 | 99.99 | 100 | 99.98 | 99.89 | 100 |
| CC(C)(N)CNC(=O)CC1CCC2(CC1)OOC1(O2)C2CC3CC(C2)CC1C3.Cc1ccc(S(=O)(=O)O)cc1 (stereo not shown) [compound 277] | 10.4 | 99.92 | 0/5 | 27.6 | 100 | 9.4 | 83 | 14 | 100 | 25 | 7 | 9 | 100 |
| Cc1ccc(S(=O)(=O)O)cc1.O=C(CC1CCC2(CC1)OOC1(O2)C2CC3CC(C2)CC1C3)N1CCNCC1 (stereo not shown) [compound 279] | 14.8 | 99.95 | 0/5 | 25.4 | 100 | 8.8 | 83 | 14.8 | 100 | 97 | 27 | 14 | 100 |
